Results taken from patent US20050119263A1, “Treatment of breast cancer” (priority 2001, published 2005).

Tested on: metastatic and/or recurrent breast cancer
Experiment: Phase III clinical trial, survival of patients treated with DPPE/doxorubicin versus doxorubicin alone
Assay type: in vivo, human
Description: In the treatment of metastatic and/or recurrent breast cancer, the diphenyl compound preferably is used in an amount of about 3 to about 10 mg/kg of patient administered intravenously over a period of about 30 to about 90 minutes prior to administration of the chemotherapeutic agent(s) and continuing for the period of administration of the chemotherapy agent(s). In the specific Phase III clinical trial described herein, there was employed 5.3 mg/kg of DPPE in the form of the base (equivalent to 6 mg/kg of DPPE in the form of its hydrochloride), administered intravenously as an aqueous solution thereof over 80 minutes, with the last twenty minutes being accompanied by infusion of the specific chemotherapeutic agent.
The anthracycline chemotherapy agent active in breast cancer which is employed herein preferably is used in a total amount of about 50 to about 75 mg/M^2 of patient consistent with the identity of the anthracycline chemotherapy agent(s). In the specific Phase III clinical trial described herein, there was employed 60 mg/M^2 of doxorubicin administered over the last 20 minutes of infusion of the DPPE solution. […]
The survival time of patients was determined in relation to ER status for patients receiving the DPPE/DOX combination and DOX alone. […]
In addition, the survival times of patients was determined in relation to disease-free intervals for patients receiving the DPPE/DOX combination and DOX alone.
The survival times of patients was determined in relation to the number of cycles of treatment for patients receiving the DPPE/DOX combination and DOX alone.
The survival time for patients also was determined for those patients with metastatic breast cancer receiving no prior chemotherapy treatment in relation to those also had received prior chemotherapy treatment and for patients that had received no previous treatment type (i.e. no prior chemotherapy, radiotherapy and/or hormone treatment). The survival times were determined for patients receiving the DPPE/DOX combination and DOX alone.

Row | SMILES | increase in overall survival compared to the control group (patients with aggressive breast cancer, pretreatment with DPPE before doxorubicin) | median overall survival (patients with metastatic disease who had no previous chemotherapy, DPPE 5.3 mg/kg iv over 80 min, doxorubicin 60 mg/M^2 over last 20 min) | median overall survival (patients with metastatic disease who had no previous treatment (chemotherapy, radiotherapy and/or hormone treatment))
1 | CCN(CC)CCOc1ccc(Cc2ccccc2)cc1 [DPPE, N,N-diethyl-2-[4-(phenylmethyl)-phenoxy]ethanamine] | about 50% |  | 
2 | COc1cccc2c1C(=O)c1c(O)c3c(c(O)c1C2=O)C[C@@](O)(C(=O)CO)C[C@@H]3O[C@H]1C[C@H](N)[C@H](O)[C@H](C)O1 [DOX, doxorubicin] |  | 16.2 months | 15 months
